Values joined by “and” are separate entries in the source; they are usually repeats but may differ in a detail not shown here. Equal entries are not always repeated. “Also recorded” adds a separate entry of the source. Where two headings read alike, the source gives them in different places.
Tests used:
Type in all cases: cell-based
MCF-7 cells = experiment: Cytotoxicity on MCF-7 cells; conditions: for % Inhibition / inhibition at 1 µg/mL / inhibition at 5 µg/mL / inhibition at 10 µg/mL / inhibition at 50 µg/mL: vs 2% DMSO; for inhibition at 1 µg/mL / inhibition at 5 µg/mL / inhibition at 10 µg/mL / inhibition at 50 µg/mL: Homo sapiens; for inhibition at 1 µg/mL: MCF7, 1 μg/ml; for inhibition at 5 µg/mL: MCF7, 5 μg/ml; for inhibition at 10 µg/mL: MCF7, 10 μg/ml; for inhibition at 50 µg/mL: MCF7, 50 μg/ml; for inhibitory activity / growth inhibition compared to AZT: MCF-7 cells, same conditions as AZT; for cytotoxic activities on MCF-7 cells: different drug concentrations
PC-3 cells = experiment: Cytotoxicity on PC-3 cells; conditions: for inhibitory activity / growth inhibition compared to AZT: PC-3 cells, same conditions as AZT
From the text: (§1) The purified and identified analogs were subjected to in vitro biological testing.

H-9 cells = experiment: Cytotoxicity on H-9 cells; conditions: for inhibitory activity / growth inhibition compared to AZT: H-9 cells, same conditions as AZT; for Cells (×10^4) Mean / Cells (×10^4): Table 3, 12-05 to 12-09/2005; for % Inhibition / inhibition at 1 µg/mL / inhibition at 5 µg/mL / inhibition at 10 µg/mL / inhibition at 50 µg/mL: vs 2% DMSO, Table 3; for inhibition at 1 µg/mL / inhibition at 5 µg/mL / inhibition at 10 µg/mL / inhibition at 50 µg/mL: Homo sapiens; for inhibition at 1 µg/mL: H9, 1 μg/ml; for inhibition at 5 µg/mL: H9, 5 μg/ml; for inhibition at 10 µg/mL: H9, 10 μg/ml; for inhibition at 50 µg/mL: H9, 50 μg/ml
From the text: as §1
These three congeners were further evaluated in H9 and PC3 cells. AZT was employed as a positive control in all of these experiments.

[1] = 5 μg/ml, single count, Table 17, 12-12 to 12-16/2005
[2] = single count, Table 17, read-out: % Inhibition
[3] = Table 17, read-out: % Inhibition Mean
[4] = single count, read-out: % Inhibition
[5] = single count, Table 6, read-out: % Inhibition
[6] = Table 6, read-out: % Inhibition Mean

COc1cc(C=CC(=O)c2cc(Cl)cc(Cl)c2O)cc(OC)c1OC [CHCl 3M]
Cells (×10^4) (MCF-7 cells; [1]): 53.0 ×10^4

COc1cc(C=CC(=O)c2cc(C)cc([N+](=O)[O-])c2O)cc(OC)c1OC (stereo in doubt) [CHNM 3M]
inhibitory activity / growth inhibition compared to AZT (PC-3 cells): much superior
inhibitory activity / growth inhibition compared to AZT (H-9 cells): much superior
Cells (×10^4) Mean (MCF-7 cells; 1 μg/ml, Table 17, 12-12 to 12-16/2005): 44.50 ×10^4
% Inhibition (MCF-7 cells; 1 μg/ml, single count, Table 17): 11.62%
Cells (×10^4) (MCF-7 cells; 1 μg/ml, single count, Table 17, 12-12 to 12-16/2005): 44.3 ×10^4 and 45.0 ×10^4
Cells (×10^4) Mean (MCF-7 cells; 5 μg/ml, Table 17, 12-12 to 12-16/2005): 24.75 ×10^4
% Inhibition (MCF-7 cells; 5 μg/ml, single count, Table 17): 52.86% and 51.88%
Cells (×10^4) (MCF-7 cells; [1]): 25.8 ×10^4 and 24.0 ×10^4 and 24.5 ×10^4
Cells (×10^4) Mean (MCF-7 cells; 10 μg/ml, Table 17, 12-12 to 12-16/2005): 4.92 ×10^4
% Inhibition (MCF-7 cells; 10 μg/ml, single count, Table 17): 90.67%
Cells (×10^4) (MCF-7 cells; 10 μg/ml, single count, Table 17, 12-12 to 12-16/2005): 5.0 ×10^4 and 4.8 ×10^4
Cells (×10^4) Mean (MCF-7 cells; 50 μg/ml, Table 17, 12-12 to 12-16/2005): 1.75 ×10^4
% Inhibition (MCF-7 cells; 50 μg/ml, single count, Table 17): 96.07% and 97.05%
Cells (×10^4) (MCF-7 cells; 50 μg/ml, single count, Table 17, 12-12 to 12-16/2005): 1.8 ×10^4 and 2.0 ×10^4 and 1.5 ×10^4
inhibition at 1 µg/mL (MCF-7 cells; [2]): 13.1%
inhibition at 1 µg/mL (MCF-7 cells; [3]): 12.6%
inhibition at 5 µg/mL (MCF-7 cells; [2]): 49.4%
inhibition at 5 µg/mL (MCF-7 cells; [3]): 51.4%
inhibition at 10 µg/mL (MCF-7 cells; [2]): 90.2%
inhibition at 10 µg/mL (MCF-7 cells; [3]): 90.3%
inhibition at 50 µg/mL (MCF-7 cells; [2]): 96.6%
inhibition at 50 µg/mL (MCF-7 cells; [3]): 96.6%
inhibitory activity / growth inhibition compared to AZT (MCF-7 cells): much superior
cytotoxic activities on MCF-7 cells (MCF-7 cells): good cytotoxic activities

Cc1cn([C@H]2C[C@H](N=[N+]=[N-])[C@@H](CO)O2)c(=O)[nH]c1=O [AZT, reference compound]
Cells (×10^4) Mean (PC-3 cells; 5 μg/ml, Table 7, 11-11 to 11-17/2005): 71.33 ×10^4
% Inhibition (PC-3 cells; 10 μg/ml, single count, vs 2% DMSO, Table 7): 38.73%
Cells (×10^4) Mean (MCF-7 cells; 1 μg/ml, Table 12, 9-12 to 9-16/2005): 45.25 ×10^4
Cells (×10^4) (MCF-7 cells; 1 μg/ml, single count, Table 12, 9-12 to 9-16/2005): 46.0 ×10^4 and 45.3 ×10^4 and 44.5 ×10^4
Cells (×10^4) Mean (MCF-7 cells; 5 μg/ml, Table 12, 9-12 to 9-16/2005): 28.58 ×10^4
Cells (×10^4) (MCF-7 cells; 5 μg/ml, single count, Table 12, 9-12 to 9-16/2005): 27.8 ×10^4 and 28.0 ×10^4
Cells (×10^4) Mean (MCF-7 cells; 10 μg/ml, Table 12, 9-12 to 9-16/2005): 20.17 ×10^4
Cells (×10^4) (MCF-7 cells; 10 μg/ml, single count, Table 12, 9-12 to 9-16/2005): 17.5 ×10^4 and 21.5 ×10^4

COc1ccc(C=CC(=O)c2cc(Cl)cc(Cl)c2O)cc1OC (stereo in doubt) [CHCl 2M]
inhibitory activity / growth inhibition compared to AZT (PC-3 cells; listed as CHCI2M): much superior; also recorded: as good or somewhat better
Cells (×10^4) Mean (H-9 cells; 1 μg/ml): 42.25 ×10^4
% Inhibition (H-9 cells; 1 μg/ml, single count): 15.42%
Cells (×10^4) (H-9 cells; 1 μg/ml, single count): 42.0 ×10^4 and 42.3 ×10^4 and 42.5 ×10^4
Cells (×10^4) Mean (H-9 cells; 5 μg/ml): 24.00 ×10^4
% Inhibition (H-9 cells; 5 μg/ml, single count): 52.74% and 51.74%
Cells (×10^4) (H-9 cells; 5 μg/ml, single count): 24.0 ×10^4 and 23.8 ×10^4 and 24.3 ×10^4
Cells (×10^4) Mean (H-9 cells; 10 μg/ml): 12.92 ×10^4
% Inhibition (H-9 cells; 10 μg/ml, single count): 77.11% and 71.64%
Cells (×10^4) (H-9 cells; 10 μg/ml, single count): 13.0 ×10^4 and 11.5 ×10^4 and 14.3 ×10^4
Cells (×10^4) Mean (H-9 cells; 50 μg/ml): 4.50 ×10^4
% Inhibition (H-9 cells; 50 μg/ml, single count): 90.05%
Cells (×10^4) (H-9 cells; 50 μg/ml, single count): 4.0 ×10^4 and 4.5 ×10^4 and 5.0 ×10^4
inhibitory activity / growth inhibition compared to AZT (H-9 cells; listed as CHCI2M): much superior; also recorded: as good or somewhat better
inhibition at 1 µg/mL (H-9 cells; [4]): 16.4%
inhibition at 1 µg/mL (H-9 cells; read-out: % Inhibition Mean): 15.9%
inhibition at 5 µg/mL (H-9 cells; [4]): 52.2%
inhibition at 5 µg/mL (H-9 cells; read-out: % Inhibition Mean): 52.2%
inhibition at 10 µg/mL (H-9 cells; [4]): 74.1%
inhibition at 10 µg/mL (H-9 cells; read-out: % Inhibition Mean): 74.3%
inhibition at 50 µg/mL (H-9 cells; [4]): 92%
inhibition at 50 µg/mL (H-9 cells; read-out: % Inhibition Mean): 91%
Cells (×10^4) Mean (MCF-7 cells; 1 μg/ml, Table 6, 11-14 to 11-18/2005): 49.42 ×10^4
% Inhibition (MCF-7 cells; 1 μg/ml, single count, Table 6): 16.14% and 13.54%
Cells (×10^4) (MCF-7 cells; 1 μg/ml, single count, Table 6, 11-14 to 11-18/2005): 49.8 ×10^4 and 48.5 ×10^4 and 50.0 ×10^4
Cells (×10^4) Mean (MCF-7 cells; 5 μg/ml, Table 6, 11-14 to 11-18/2005): 32.33 ×10^4
% Inhibition (MCF-7 cells; 5 μg/ml, single count, Table 6): 45.53% and 42.07%
Cells (×10^4) (MCF-7 cells; 5 μg/ml, single count, Table 6, 11-14 to 11-18/2005): 32.0 ×10^4 and 31.5 ×10^4 and 33.5 ×10^4
Cells (×10^4) Mean (MCF-7 cells; 10 μg/ml, Table 6, 11-14 to 11-18/2005): 10.42 ×10^4
% Inhibition (MCF-7 cells; 10 μg/ml, single count, Table 6): 81.41% and 81.84%
Cells (×10^4) (MCF-7 cells; 10 μg/ml, single count, Table 6, 11-14 to 11-18/2005): 10.0 ×10^4 and 10.8 ×10^4 and 10.5 ×10^4
Cells (×10^4) Mean (MCF-7 cells; 50 μg/ml, Table 6, 11-14 to 11-18/2005): 0.75 ×10^4
% Inhibition (MCF-7 cells; 50 μg/ml, single count, Table 6): 99.14%
Cells (×10^4) (MCF-7 cells; 50 μg/ml, single count, Table 6, 11-14 to 11-18/2005): 1.0 ×10^4 and 0.5 ×10^4 and 0.8 ×10^4
inhibition at 1 µg/mL (MCF-7 cells; [5]): 14%
inhibition at 1 µg/mL (MCF-7 cells; [6]): 14.6%
inhibition at 5 µg/mL (MCF-7 cells; [5]): 44.7%
inhibition at 5 µg/mL (MCF-7 cells; [6]): 44.1%
inhibition at 10 µg/mL (MCF-7 cells; [5]): 82.7%
inhibition at 10 µg/mL (MCF-7 cells; [6]): 82%
inhibition at 50 µg/mL (MCF-7 cells; [5]): 98.3%
inhibition at 50 µg/mL (MCF-7 cells; [6]): 98.7%
inhibitory activity / growth inhibition compared to AZT (MCF-7 cells; listed as CHCI2M): much superior; also recorded: as good or somewhat better
cytotoxic activities on MCF-7 cells (MCF-7 cells): good cytotoxic activities

Reference: patent US20090312407A1, “Synthetic Flavonoids and Pharmaceutical Compositions and Therapeutic Methods of Treatment of Cancer and other Pathologies” (priority 2007, published 2009)
